According to patent US6407288B1, “Naphthylsalicylanilides as antimicrobial and antiinflammatory agents” (The Research Foundation of State University of New York, priority 2000, dated 2002):
Values after ≈ are worked out from the molar mass of the structure shown.

Key:
S. mutans = test: MIC microdilution, gram positive; format: cell-based, Streptococcus mutans; conditions: Table 1, Gram Positive; for MIC: Streptococcus mutans
Description: (§1) The MIC's for the compounds were determined by a modified microdilution tube dilution method described in “Methods for Dilution Antimicrobial Susceptibility Tests for Bacteria that Grow Aerobically” (National Committee for Clinical Laboratory Standards Approved Standards, 1997, NCCLS document M7-A4). In general the modifications were made because of the unique growth requirements for the fastidious oral organisms and for those bacteria that require anaerobic conditions. Reference is also made to “Methods for Antimicrobial Susceptibility of Anaerobic Bacteria” (National Committee for Clinical Laboratory Standards Approved Standards, 1997, NCCLS document M11-A4). Briefly, the methods were as follows. Cultures were grown for 18-24hrs (aerobic bacteria) or 48-72 hrs (anaerobic bacteria) in the appropriate medium. For aerobic bacteria full strength brain heart infusion medium (BHI, Difco) was used. For anaerobic bacteria, half strength BHI (18.5 g/L) was supplemented by adding yeast extract (10 g/L), hemin (0.29 mL of a stock solution containing 0.1 g/200 mL dH2O) and menadione (15 mL of a stock solution containing 0.15 mL in 30 mL 95% EtOH) was used. Initial cultures were diluted to approximately 1×10^8 CFU/mL for use as an inoculum. Each assay received 10 μL of the inoculum. The drugs were prepared from a stock solution contained in dimethyl sulfoxide (DMSO) and diluted into the culture medium. Final concentrations of the drugs ranged from 50 to 0.05 μg/assay. The tests were run in duplicate and were incubated appropriately with regard to oxygen requirements for 24 to 48 hrs as required. Anaerobic incubation was an atmosphere of 5% CO2, 10% H2, with the balance N2. The lowest concentration of an antimicrobial agent at which no visible growth is noted was referred to as the MIC.

P. acnes 6922 = test: MIC microdilution, gram positive; format: cell-based, Propionibacterium acnes; conditions: Table 1, Gram Positive; for MIC: Cutibacterium acnes, 6922
Description: as §1

A. viscosus = test: MIC microdilution, gram positive; format: cell-based, Actinomyces viscosus; conditions: Table 2, Gram Positive; for MIC: Actinomyces viscosus
Description: as §1

S. aureus = test: MIC microdilution, gram positive; format: cell-based, Staphlococcus aureus; conditions: for MIC: Staphylococcus aureus
Description: (§2) The MIC's for the compounds were determined by a modified microdilution tube dilution method described in “Methods for Dilution Antimicrobial Susceptibility Tests for Bacteria that Grow Aerobically” (National Committee for Clinical Laboratory Standards Approved Standards, 1997, NCCLS document M7-A4). In general the modifications were made because of the unique growth requirements for the fastidious oral organisms and for those bacteria that require anaerobic conditions. Reference is also made to “Methods for Antimicrobial Susceptibility of Anaerobic Bacteria” (National Committee for Clinical Laboratory Standards Approved Standards, 1997, NCCLS document M11-A4).
(§3) Briefly, the methods were as follows. Cultures were grown for 18-24hrs (aerobic bacteria) or 48-72 hrs (anaerobic bacteria) in the appropriate medium. For aerobic bacteria full strength brain heart infusion medium (BHI, Difco) was used. For anaerobic bacteria, half strength BHI (18.5 g/L) was supplemented by adding yeast extract (10 g/L), hemin (0.29 mL of a stock solution containing 0.1 g/200 mL dH2O) and menadione (15 mL of a stock solution containing 0.15 mL in 30 mL 95% EtOH) was used. Initial cultures were diluted to approximately 1×10^8 CFU/mL for use as an inoculum. Each assay received 10 μL of the inoculum. The drugs were prepared from a stock solution contained in dimethyl sulfoxide (DMSO) and diluted into the culture medium. Final concentrations of the drugs ranged from 50 to 0.05 μg/assay. The tests were run in duplicate and were incubated appropriately with regard to oxygen requirements for 24 to 48 hrs as required. Anaerobic incubation was an atmosphere of 5% CO2, 10% H2, with the balance N2. The lowest concentration of an antimicrobial agent at which no visible growth is noted was referred to as the MIC.
(§4) This embodiment describes the sensitivity of various staphylococcus strains to the compounds of the present invention. The staphylococcus species R is a strain 00-045-1209 from the Children's Hospital in Buffalo. It was isolated from the peritoneal cavity (fluid culture) of an individual. It was coagulase negative. The sensitivity of this strain was tested agaisnt several known antibiotics.

P. ging 381 = test: MIC microdilution, gram negative; format: cell-based, Porphyromonas gingivalis; conditions: for MIC: Porphyromonas gingivalis, 381
Description: (§5) The MIC's for the compounds were determined by a modified microdilution tube dilution method described in “Methods for Dilution Antimicrobial Susceptibility Tests for Bacteria that Grow Aerobically” (National Committee for Clinical Laboratory Standards Approved Standards, 1997, NCCLS document M7-A4). In general the modifications were made because of the unique growth requirements for the fastidious oral organisms and for those bacteria that require anaerobic conditions. Reference is also made to “Methods for Antimicrobial Susceptibility of Anaerobic Bacteria” (National Committee for Clinical Laboratory Standards Approved Standards, 1997, NCCLS document M11-A4). Briefly, the methods were as follows. Cultures were grown for 18-24hrs (aerobic bacteria) or 48-72 hrs (anaerobic bacteria) in the appropriate medium. For aerobic bacteria full strength brain heart infusion medium (BHI, Difco) was used. For anaerobic bacteria, half strength BHI (18.5 g/L) was supplemented by adding yeast extract (10 g/L), hemin (0.29 mL of a stock solution containing 0.1 g/200 mL dH2O) and menadione (15 mL of a stock solution containing 0.15 mL in 30 mL 95% EtOH) was used. Initial cultures were diluted to approximately 1×10^8 CFU/mL for use as an inoculum. Each assay received 10 μL of the inoculum. The drugs were prepared from a stock solution contained in dimethyl sulfoxide (DMSO) and diluted into the culture medium. Final concentrations of the drugs ranged from 50 to 0.05 μg/assay. The tests were run in duplicate and were incubated appropriately with regard to oxygen requirements for 24 to 48 hrs as required. Anaerobic incubation was an atmosphere of 5% CO2, 10% H2, with the balance N2. The lowest concentration of an antimicrobial agent at which no visible growth is noted was referred to as the MIC. […] The method used was the same as described in Example 1.

S. sanguis = test: MIC microdilution, gram positive; format: cell-based, Streptococcus sanguis; conditions: Table 1, Gram Positive
Description: as §1

S.salivarius = test: MIC microdilution, gram positive; format: cell-based, Streptococcus salivarius; conditions: Table 1, Gram Positive
Description: as §1

P. acnes 11828 = test: MIC microdilution, gram positive; format: cell-based, Propionibacterium acnes; conditions: Table 1, Gram Positive
Description: as §1

Lact 7496 = test: MIC microdilution, gram positive; format: cell-based, Lactobacillus rhamnosus (casei); conditions: Table 2, Gram Positive
Description: as §1

M. luteus = test: MIC microdilution, gram positive; format: cell-based, Micrococcus luteus; conditions: Table 2, Gram Positive
Description: as §1

Fuso. 25586 = test: MIC microdilution, gram negative; format: cell-based, Fusobacterium nucleatum
Description: as §5

Aa Y4 = test: MIC microdilution, gram negative; format: cell-based, Actinobacillus actinomycetemcomitans
Description: as §5

Pg 53977 = test: MIC microdilution, gram negative; format: cell-based, Porphyromonas gingivalis
Description: as §5

B. fragilis = test: MIC microdilution, gram negative; format: cell-based, Bacteroides fraglis
Description: as §5

Str. pn. R = test: Mean Streptococcus MIC; format: cell-based; conditions: Table 5, mean; strain resistant to penicillin and erythromycin
Description: as §2, §3
(§6) This embodiment illustrates the efficacy of the compounds of the present invention against Streptococcus strains. One of the strains, Str.pn.R was obtained from the Children's Hospital in Buffalo (strain 00-041-0614). […] The sensitivity of this strain was tested against several known antibiotics.

Str. pn = test: Mean Streptococcus MIC; format: cell-based; conditions: Table 5, mean
Description: as §2, §3, §6

S. species R = test: Staphylococcus MIC; format: cell-based, staphylococcus species R; conditions: second Table 5 (Example 5); strain 00-045-1209
Description: as §2, §3, §4

[1] = Table 3 printed a second time, Gram Negative

SMILES | MIC (S. mutans) [µg/mL] | MIC (P. acnes 6922) [µg/mL] | MIC (A. viscosus) [µg/mL] | MIC (S. aureus; Table 2, Gram Positive) [µg/mL] | MIC (P. ging 381; Table 3, Gram Negative) [µg/mL] | MIC P. ging 381 (P. ging 381; [1]) | MIC S. mutans (S. mutans) | MIC P. acnes 6922 (P. acnes 6922) | MIC A. viscosus (A. viscosus) | MIC S. aureus (S. aureus; Table 2, Gram Positive) | MIC P. ging 381 (P. ging 381; Table 3, Gram Negative) | other results
O=C(Nc1cc(C(F)(F)F)cc(C(F)(F)F)c1)c1cc(C(=O)c2cccc3ccccc23)ccc1O [NAmF2] | 1.6 (≈ 3.18 µM) | 0.4 (≈ 0.795 µM) | 0.8 (≈ 1.59 µM) | > 50 | 0.2 (≈ 0.397 µM) | 0.2 micrograms/ml |  |  |  |  |  | 
N#Cc1ccc(NC(=O)c2cc(C(=O)c3ccc4ccccc4c3)ccc2O)cc1 [NA2pC] |  |  |  |  |  | 0.4 micrograms/ml | 1.6 micrograms/ml | 6.3 micrograms/ml | 1.6 micrograms/ml | 6.3 micrograms/ml | 0.4 micrograms/ml | MIC S. sanguis (S. sanguis): 6.3 micrograms/ml; MIC S.salivarius (S.salivarius): 50 micrograms/ml; MIC P. acnes 11828 (P. acnes 11828): 6.3 micrograms/ml; MIC S. aureus (S. aureus; second Table 5 (Example 5)): 6.3 micrograms/ml; MIC Lact 7496 (Lact 7496): 6.3 micrograms/ml; MIC M. luteus (M. luteus): 3.1 micrograms/ml; MIC Fuso. 25586 (Fuso. 25586; Table 3, Gram Negative): 12.5 micrograms/ml; MIC Fuso. 25586 (Fuso. 25586; [1]): 12.5 micrograms/ml; MIC Aa Y4 (Aa Y4; Table 3, Gram Negative): 6.3 micrograms/ml; MIC Aa Y4 (Aa Y4; [1]): 6.3 micrograms/ml; MIC Pg 53977 (Pg 53977; Table 3, Gram Negative): 0.4 micrograms/ml; MIC Pg 53977 (Pg 53977; [1]): 0.4 micrograms/ml; MIC B. fragilis (B. fragilis; Table 3, Gram Negative): 3.1 micrograms/ml; MIC B. fragilis (B. fragilis; [1]): 3.1 micrograms/ml; Mean Streptococcus MIC values Str. pn. R (Str. pn. R): 3.12 micrograms/ml; Mean Streptococcus MIC values Str. pn (Str. pn): 0.58 micrograms/ml; MIC S. species R (S. species R): 12.5 micrograms/ml
O=C(Nc1ccccc1)c1cc(C(=O)c2cccc3ccccc23)ccc1O [NA1, 2-Hydroxy-5-(naphthalene-1-carbonyl)-N-phenyl-benzamide] | 50 (≈ 136 µM) | 25 (≈ 68 µM) | 3.1 (≈ 8.44 µM) | 50 (≈ 136 µM) | 1.6 (≈ 4.35 µM) | 1.6 micrograms/ml |  |  |  |  |  | MIC (S. sanguis; Streptococcus): > 50 µg/mL; MIC (S.salivarius; Streptococcus salivarius): > 50 µg/mL; MIC (P. acnes 11828; Cutibacterium acnes, 11828): > 50 µg/mL
O=C(Nc1cccc(Oc2ccccc2)c1)c1cc(C(=O)c2cccc3ccccc23)ccc1O [NA1mOPh] |  |  |  |  |  | NE (NE indicates that the drug was not effective at a concentration >50 micrograms/ml) | NE (NE indicates that the drug was not effective at a concentration >50 micrograms/ml) | NE (NE indicates that the drug was not effective at a concentration >50 micrograms/ml) | NE (NE indicates that the drug was not effective at a concentration >50 micrograms/ml) | NE (NE indicates that the drug was not effective at a concentration >50 micrograms/ml) | NE (NE indicates that the drug was not effective at a concentration >50 micrograms/ml) | 
O=C(c1ccccc1)c1ccc(NC(=O)c2cc(C(=O)c3cccc4ccccc34)ccc2O)cc1 [NA1pBz] |  |  |  |  |  | NE (NE indicates that the drug was not effective at a concentration >50 micrograms/ml) | NE (NE indicates that the drug was not effective at a concentration >50 micrograms/ml) | NE (NE indicates that the drug was not effective at a concentration >50 micrograms/ml) | NE (NE indicates that the drug was not effective at a concentration >50 micrograms/ml) | NE (NE indicates that the drug was not effective at a concentration >50 micrograms/ml) | NE (NE indicates that the drug was not effective at a concentration >50 micrograms/ml) | 
O=C(Nc1cccc(COc2ccccc2)c1)c1cc(C(=O)c2cccc3ccccc23)ccc1O [NA1_3BnOP] | > 50 | > 50 | 6.3 (≈ 13.3 µM) | > 50 | 3.1 (≈ 6.55 µM) | 3.1 micrograms/ml |  |  |  |  |  | 
COc1cc(NC(=O)c2cc(C(=O)c3cccc4ccccc34)ccc2O)cc(OC)c1 [NA1-2mOMe] |  |  |  |  |  | NE (NE indicates that the drug was not effective at a concentration >50 micrograms/ml) | NE (NE indicates that the drug was not effective at a concentration >50 micrograms/ml) | NE (NE indicates that the drug was not effective at a concentration >50 micrograms/ml) | NE (NE indicates that the drug was not effective at a concentration >50 micrograms/ml) | NE (NE indicates that the drug was not effective at a concentration >50 micrograms/ml) | NE (NE indicates that the drug was not effective at a concentration >50 micrograms/ml) | 
O=C(Nc1cccc(C(F)(F)F)c1)c1cc(C(=O)c2c(O)ccc3ccccc23)ccc1O [NA1OHmF] | 6.3 (≈ 14 µM) | 3.1 (≈ 6.87 µM) | 0.8 (≈ 1.77 µM) | > 50 | 0.8 (≈ 1.77 µM) | 0.8 micrograms/ml |  |  |  |  |  | 
N#Cc1ccc(NC(=O)c2cc(C(=O)c3cccc4ccccc34)ccc2O)c2ccccc12 [NA1NpC] |  |  |  |  |  | 0.2 micrograms/ml | NE (NE indicates that the drug was not effective at a concentration >50 micrograms/ml) | 0.4 micrograms/ml | 0.8 micrograms/ml | NE (NE indicates that the drug was not effective at a concentration >50 micrograms/ml) | 0.2 micrograms/ml | 
